From US9340575B2, “Agonists and antagonists of the urotensinergic system” (INSTITUT NATIONAL DE LA RECHERCHE SCIENTIFIQUE, priority 2011, dated 2016)
Marks after values point to notes of the source that are not given here. Bridge positions count the residues as written; N and C are the ends. Ends that are not written are not given here.

Tested on: rat thoracic aorta rings
Assay type: cell-based
Settings: for Aortic Ring contraction Emax (%), maximum efficacy at 10^−5.5M: percentage of KCl (40 mM) contraction; for Aortic Ring contraction pEC50: endothelium-denuded rat thoracic aorta; for Aortic Ring contraction Emax (%): percentage of contraction induced by KCl (40 mM)
Protocol: Binding and functional experiments were performed at least in triplicate and data, expressed as mean±S.E.M, were analyzed using the Prism software (Graph Pad Software, San Diego, Calif.). In all experiments, n represents the total number of animals studied or individual assays performed. The EC50, pEC50, pIC50 values as well as the Emax value were determined from the concentration-response curves using a sigmoidal dose-response fit with variable slope. […] The slope is calculated from the double reciprocal plot of equiactive concentrations of agonist in the presence and absence of antagonist.

Row | EC50 | Aortic Ring contraction pEC50 | Molecule | Agonist behaviour in aortic ring contraction (in words) | Aortic Ring contraction Emax (%), maximum efficacy at 10^−5.5M | Aortic Ring contraction Emax (%)
1 | 159 nM | – | CC(C)[C@H](NC(=O)[C@@H]1CSSC[C@H](NC(=O)[C@H](C)N)C(=O)N[C@@H](Cc2ccccc2)C(=O)N[C@@H]2Cc3c([nH]c4ccccc34)CN(C2=O)[C@@H](CCCCN)C(=O)N[C@@H](Cc2ccc(O)cc2)C(=O)N1)C(=O)O [Compound 13, [D-Aia^4]URP] | – | – | –
2 | – | – | [Pro^7]hUII: hUII in which the Trp residue is replaced by a Pro moiety (ETPDCFPKYCV-OH; disulfide 5-10 (inferred)) | weak agonistic effect | 69% | –
3 | 825 nM | 6.08 ± 0.04 | CC(C)[C@H](NC(=O)[C@@H]1CSSC[C@H](NC(=O)[C@H](C)N)C(=O)N[C@@H](Cc2ccccc2)C(=O)N[C@H](Cc2cccc3ccccc23)C(=O)N[C@@H](CCCCN)C(=O)N[C@@H](Cc2ccc(O)cc2)C(=O)N1)C(=O)O [Compound 4, [D-1-Nal^4]URP] | – | 34% | –
4 | 54 nM | 7.27 ± 0.24 | CC(C)[C@H](NC(=O)[C@@H]1CSSC[C@H](NC(=O)[C@H](C)N)C(=O)N[C@@H](Cc2ccccc2)C(=O)N[C@@H](Cc2cccc3ccccc23)C(=O)N[C@@H](CCCCN)C(=O)N[C@@H](Cc2ccc(O)cc2)C(=O)N1)C(=O)O [Compound 3, H-Ala-Cys-Phe-Nal-Lys-Tyr-Cys-Val-OH] | almost equipotent analog | – | 86 ± 8%
5 | 259 nM | 6.08 ± 0.04 | CC(C)[C@H](NC(=O)[C@@H]1CSSC[C@H](NC(=O)[C@H](C)N)C(=O)N[C@@H](Cc2ccccc2)C(=O)N2Cc3ccccc3C[C@@H]2C(=O)N[C@@H](CCCCN)C(=O)N[C@@H](Cc2ccc(O)cc2)C(=O)N1)C(=O)O [Compound 19, [D-Tic^4]URP] | – | – | 128 ± 12%
6 | 21 nM | 7.68 ± 0.17 | CC(C)[C@H](NC(=O)[C@@H]1CSSC[C@H](NC(=O)[C@H](C)N)C(=O)N[C@@H](Cc2ccccc2)C(=O)N2CCc3ccccc3[C@@H]2C(=O)N[C@@H](CCCCN)C(=O)N[C@@H](Cc2ccc(O)cc2)C(=O)N1)C(=O)O [Compound 17, [D-Tiq^4]URP] | – | – | 113 ± 7%
7 | > 1000 nM | <6 | CC(C)[C@H](NC(=O)[C@@H]1CSSC[C@H](NC(=O)[C@H](C)N)C(=O)N[C@@H](Cc2ccccc2)C(=O)N[C@@H](C(c2ccccc2)c2ccccc2)C(=O)N[C@@H](CCCCN)C(=O)N[C@@H](Cc2ccc(O)cc2)C(=O)N1)C(=O)O [Compound 9, H-Ala-Cys-Phe-Dip-Lys-Tyr-Cys-Val-OH] | weak UT agonist | 23^d % | –
8 | 262 nM | – | CC(C)[C@H](NC(=O)[C@@H]1CSSC[C@H](NC(=O)[C@H](C)N)C(=O)N[C@@H](Cc2ccccc2)C(=O)N[C@H](C(C)(C)C)C(=O)N[C@@H](CCCCN)C(=O)N[C@@H](Cc2ccc(O)cc2)C(=O)N1)C(=O)O [Compound 8, [D-Tbg^4]URP] | – | – | –
